One assay has as its target CDK2 (Homo sapiens (Human), UniProt P24941). The experiment in a line: CDK2 NanoBiT assay (HiBiT-tagged CDK2 degradation). Type of assay: cell-based. Conditions: HEK293, HEK293 clonal line, C-terminal HiBiT tag on CDK2, LgBiT; 24 hours. The method, then:
Example 145. NanoBiT Assay
A HEK293 clonal line with a CRISPR knock-in C-terminal HiBiT tag on CDK2 and stably expressing LgBiT protein was obtained from Promega (Madison, WI). Cells were plated at 5000 cells per well using Multiflo (BioTek) in 384-well white solid bottom plates (Corning, 3570BC) in 25 ul volume in DMEM media (DMEM, high glucose, HEPES, no phenol red (ThermoFisher Scientific, 21063029)) containing 10% FBS (Corning, 35-075-CV), 1% Peniciliin/Streptomycin ((ThermoFisher Scientific, 15140-122), and 1% Endurazine (Nano-Glo Endurazine Live Cell Substrate (Promega, N2571)). Cells were incubated for 16 hours at 37 C, 5% CO2. 75 nL of a compound at 30 μM were dosed into the plate using an Echo® 650 liquid handler (Labcyte). Cells were incubated at 37° C., 5% CO2 for 24 hours and then signal was read on a Pherastar FSX using “LUM plus” optic module.
Analysis was performed in Scinamic (Scinamic, Cambridge, MA). Luminescence response (R) was calculated by the formula: response=100*(S−N)/(P−N) where S is the signal of the well, N and P the mean negative and positive control values respectively of the same plate. The luminescence response was then fitted in Scinamic using a 3-parameter agonist logistic fit (hillslope=1, EC50>0, top/bottom unconstrained).
On the technique in general: With HiBiT, luminescence reflects the tagged protein that the partner subunit can reach.

The next assay concerns the target CRBN-DDB1 (Homo sapiens (Human), UniProt Q96SW2). The experiment in a line: CRBN HTRF assay (Cy5-Thalidomide probe displacement). It is filed as binding. Conditions: CRBN-DDB1 2.5 nM, Cy5-Thalidomide 100 nM, 30 min; Ki from geometric mean IC50 by Cheng-Prusoff. The method, then:
Compound activity was monitored in a Homogenous Time-Resolved Fluorescence (HTRF) assay using 1-[5-({2-[2-(2-{[2-(2,6-dioxopiperidin-3-yl)-1,3-dioxo-2,3-dihydro-1H-isoindol-4-yl]oxy}acetamido)ethoxy]ethyl}carbamoyl)pentyl]-3,3-dimethyl-2-[(1E,3E)-5-[(2E)-1,3,3-trimethyl-5-sulfo-2,3-dihydro-1H-indol-2-ylidene]penta-1,3-dien-1-yl]-3H-indol-1-ium-5-sulfonate as a fluorescent probe. Biochemical assays were conducted in Greiner white 384 well HiBase plates (Cat. No 784075-25) in 10 μL total volume. A one pot detection solution of CRBN-DDB1 (2.5 nM), Anti-His Terbium Cryptate Gold (1×, PerkinElmer Cat. #: 61HI2TLB), and Cy5-Thalidomide (100 nM, Tenova Cat.: T52461) was prepared in 20 mM HEPES, 20 mM NaCl, 0.2 mM TCEP, 0.2 mM EDTA, and 0.005% Tween20 was dispensed to each assay plate. Compounds were stored in dry, ambient temperatures at 10 mM. A 10-point, 1:3 dilution series was prepared from 10 mM stock concentrations in Echo-compatible LDV plates. 10 nL of each compound dilution series was dispensed into assays wells using an Echo 650 (Labcyte inc. USA). 10 nL of 10 mM Lenalidomide was transferred into the active-control wells for the assay and 10 nL of DMSO was transferred into the neutral-control wells. The assay was then allowed to incubate for 30 min at ambient temperature after transferring compound. Plate measurements were taken on a Pherastar FSX (BMG Labtech, Germany) using the HTRF Red filter (Ex. 337 nm, em1: 620 nm, em2: 665 nm) (Flashes: 50, Integration time: 60-400 us, Z-height: 10 mm, Ratio-multiplier: 10,000). The HTRF signal was then subsequently normalized to the neutral and active controls. Analysis and IC50 values were derived using KNIME analytics (KNIME Zurich) transformation and fitting within Collaborative Drug Discovery (Collaborative Drug Discovery USA). Ki was derived from the geometric mean of the IC50 values using the Cheng-Prustoff transformation.
A general note: Time-resolved FRET reads energy transfer from a long-lived donor to a nearby acceptor.

A word on the Dmax: it is the largest share of the target that was removed. Higher therefore signals deep degradation. In general, pKi refers to the Ki on a negative log10 scale, so that one unit is a factor of ten. High values mean a small Ki, low ones a large Ki.

pKi: −log10 of the molar value.

Chain of CRBN-DDB1 (Q96SW2 whole entry): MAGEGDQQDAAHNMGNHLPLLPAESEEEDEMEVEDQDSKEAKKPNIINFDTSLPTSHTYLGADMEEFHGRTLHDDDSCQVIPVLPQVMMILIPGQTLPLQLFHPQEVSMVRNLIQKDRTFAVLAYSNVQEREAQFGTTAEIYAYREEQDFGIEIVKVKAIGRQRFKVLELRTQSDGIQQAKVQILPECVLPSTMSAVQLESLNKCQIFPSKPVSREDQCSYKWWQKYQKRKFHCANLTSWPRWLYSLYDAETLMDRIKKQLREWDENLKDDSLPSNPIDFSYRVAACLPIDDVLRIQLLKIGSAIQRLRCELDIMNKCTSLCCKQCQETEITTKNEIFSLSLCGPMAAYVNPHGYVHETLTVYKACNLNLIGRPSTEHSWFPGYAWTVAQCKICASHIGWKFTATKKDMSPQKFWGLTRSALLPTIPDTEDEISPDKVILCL
Chain of CRBN-DDB1 (Q16531 whole entry partner): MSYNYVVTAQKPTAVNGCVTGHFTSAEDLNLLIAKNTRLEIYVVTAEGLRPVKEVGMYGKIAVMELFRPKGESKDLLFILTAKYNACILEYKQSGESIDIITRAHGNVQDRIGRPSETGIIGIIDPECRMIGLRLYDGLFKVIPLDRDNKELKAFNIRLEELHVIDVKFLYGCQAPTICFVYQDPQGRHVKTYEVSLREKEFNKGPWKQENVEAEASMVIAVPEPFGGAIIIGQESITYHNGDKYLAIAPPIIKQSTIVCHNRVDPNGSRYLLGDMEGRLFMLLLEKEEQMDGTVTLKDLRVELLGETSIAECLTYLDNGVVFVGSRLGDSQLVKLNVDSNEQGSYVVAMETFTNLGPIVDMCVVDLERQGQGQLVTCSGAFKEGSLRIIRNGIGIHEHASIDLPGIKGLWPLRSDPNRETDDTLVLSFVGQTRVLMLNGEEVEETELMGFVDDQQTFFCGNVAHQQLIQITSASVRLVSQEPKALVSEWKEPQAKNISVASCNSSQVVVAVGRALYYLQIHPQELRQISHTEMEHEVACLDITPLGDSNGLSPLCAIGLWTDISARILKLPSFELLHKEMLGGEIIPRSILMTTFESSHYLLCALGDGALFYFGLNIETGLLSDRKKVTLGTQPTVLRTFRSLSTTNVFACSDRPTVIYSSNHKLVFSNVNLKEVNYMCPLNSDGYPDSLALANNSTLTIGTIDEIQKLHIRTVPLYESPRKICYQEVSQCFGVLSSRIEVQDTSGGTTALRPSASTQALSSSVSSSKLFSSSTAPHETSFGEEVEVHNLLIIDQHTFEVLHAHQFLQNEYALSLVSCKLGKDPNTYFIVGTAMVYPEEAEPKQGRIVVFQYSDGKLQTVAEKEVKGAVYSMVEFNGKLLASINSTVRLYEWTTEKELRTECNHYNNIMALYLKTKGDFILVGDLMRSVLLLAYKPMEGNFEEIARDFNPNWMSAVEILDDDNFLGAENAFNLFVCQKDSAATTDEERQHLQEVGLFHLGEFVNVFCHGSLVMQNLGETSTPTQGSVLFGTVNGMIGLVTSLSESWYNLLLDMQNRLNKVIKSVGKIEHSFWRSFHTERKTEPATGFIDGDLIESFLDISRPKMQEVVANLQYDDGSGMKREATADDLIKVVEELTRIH

Regarding `CN(C(=O)N1CC(OC(=O)NC2CN(c3cc(F)c(C4CCC(=O)NC4=O)c(F)c3)C2)C1)c1ccccc1` (stereo not drawn) [Compound 17, 1-(methyl(phenyl)carbamoyl)azetidin-3-yl (1-(4-(2,6-dioxopiperidin-3-yl)-3,5-difluorophenyl)azetidin-3-yl)carbamate], on CDK2, the Dmax fell in the range of 50 to 80%. The pKi at CRBN-DDB1 is ≥ 7.00.
The corresponding values for `CN(C)C(=O)N1CC[C@@H](OC(=O)NC2CN(c3cc(F)c(C4CCC(=O)NC4=O)c(F)c3)C2)C1` (stereo partly drawn) [Compound 18, (R)-1-(dimethylcarbamoyl)pyrrolidin-3-yl (1-(4-(2,6-dioxopiperidin-3-yl)-3,5-difluorophenyl)azetidin-3-yl)carbamate] are 10 to 50% and ≥ 7.00.
On CDK2, `CN(C)C(=O)N1CCC(OC(=O)NC2CN(c3cc(F)c(C4CCC(=O)NC4=O)c(F)c3)C2)CC1` (stereo not drawn) [Compound 19, 1-(dimethylcarbamoyl)piperidin-4-yl (1-(4-(2,6-dioxopiperidin-3-yl)-3,5-difluorophenyl)azetidin-3-yl)carbamate] registered a Dmax of 10 to 50%. The pKi on CRBN-DDB1 is ≥ 7.00.
The corresponding values for `N#Cc1ccc(C(=O)N2CC(OC(=O)NC3CN(c4cc(F)c(C5CCC(=O)NC5=O)c(F)c4)C3)C2)cc1` (stereo not drawn) [Compound 20, 1-(4-cyanobenzoyl)azetidin-3-yl (1-(4-(2,6-dioxopiperidin-3-yl)-3,5-difluorophenyl)azetidin-3-yl)carbamate] are 10 to 50% and ≥ 7.00.
As to `COc1ccc(C(=O)N2CC(OC(=O)NC3CN(c4cc(F)c(C5CCC(=O)NC5=O)c(F)c4)C3)C2)cc1` (stereo not drawn) [Compound 21, 1-(4-methoxybenzoyl)azetidin-3-yl (1-(4-(2,6-dioxopiperidin-3-yl)-3,5-difluorophenyl)azetidin-3-yl)carbamate], the maximal degradation (Dmax) at CDK2 fell in the range of 10 to 50%. In addition, the negative logarithm of the Ki (pKi) at CRBN-DDB1 is ≥ 7.00.
`O=C1CCC(c2c(F)cc(N3CC(NC(=O)OC4CN(C(=O)c5ccc(F)cc5)C4)C3)cc2F)C(=O)N1` (stereo not drawn) [Compound 22, 1-(4-fluorobenzoyl)azetidin-3-yl (1-(4-(2,6-dioxopiperidin-3-yl)-3,5-difluorophenyl)azetidin-3-yl)carbamate] had a Dmax at CDK2 of 50 to 80%. Moreover, on CRBN-DDB1, the pKi is 6.00 to 7.00.
For `Cc1ccc(C(=O)N2CC(OC(=O)NC3CN(c4cc(F)c(C5CCC(=O)NC5=O)c(F)c4)C3)C2)cc1` (stereo not drawn) [Compound 23, 1-(4-methylbenzoyl)azetidin-3-yl (1-(4-(2,6-dioxopiperidin-3-yl)-3,5-difluorophenyl)azetidin-3-yl)carbamate], the Dmax on CDK2 is 50 to 80%. Further, the pKi on CRBN-DDB1 is ≥ 7.00.
The corresponding values for `O=C1CCC(c2c(F)cc(N3CC(NC(=O)OC4CN(C(=O)c5ccccc5)C4)C3)cc2F)C(=O)N1` (stereo not drawn) [Compound 24, 1-benzoylazetidin-3-yl (1-(4-(2,6-dioxopiperidin-3-yl)-3,5-difluorophenyl)azetidin-3-yl)carbamate] are 10 to 50% and ≥ 7.00.
`CN(C(=O)N1CC[C@@H](OC(=O)NC2CN(c3cc(F)c(C4CCC(=O)NC4=O)c(F)c3)C2)C1)C1CC1` (stereo partly drawn) [Compound 25, (R)-1-(cyclopropyl(methyl)carbamoyl)pyrrolidin-3-yl (1-(4-(2,6-dioxopiperidin-3-yl)-3,5-difluorophenyl)azetidin-3-yl)carbamate]: the Dmax at CDK2 lay in the range of 10 to 50%. Also, on CRBN-DDB1, the pKi was ≥ 7.00.
`O=C1CCC(c2c(F)cc(N3CC(NC(=O)OC4CN(C(=O)c5ccc(Cl)cc5)C4)C3)cc2F)C(=O)N1` (stereo not drawn) [Compound 26, 1-(4-chlorobenzoyl)azetidin-3-yl (1-(4-(2,6-dioxopiperidin-3-yl)-3,5-difluorophenyl)azetidin-3-yl)carbamate] yielded a Dmax at CDK2 of 50 to 80%. Also, the pKi on CRBN-DDB1 is ≥ 7.00.
On CDK2, `CN(C)C(=O)N1CC[C@H](OC(=O)NC2CN(c3cc(F)c(C4CCC(=O)NC4=O)c(F)c3)C2)C1` (stereo partly drawn) [Compound 27, (S)-1-(dimethylcarbamoyl)pyrrolidin-3-yl (1-(4-(2,6-dioxopiperidin-3-yl)-3,5-difluorophenyl)azetidin-3-yl)carbamate] registered a Dmax of 10 to 50%. Besides, on CRBN-DDB1, the pKi was ≥ 7.00.
With `O=C1CCC(c2c(Cl)cc(N3CC(NC(=O)OCC4CC5(CCC5)C4)C3)cc2Cl)C(=O)N1` (stereo not drawn) [Compound 28, spiro[3.3]heptan-2-ylmethyl (1-(3,5-dichloro-4-(2,6-dioxopiperidin-3-yl)phenyl)azetidin-3-yl)carbamate], the Dmax at CDK2 was > 80%. Also, the pKi at CRBN-DDB1 is ≥ 7.00.
Regarding `Cc1cccnc1N1CC(OC(=O)NC2CN(c3cc(F)c(C4CCC(=O)NC4=O)c(F)c3)C2)C1` (stereo not drawn) [Compound 29, 1-(3-methylpyridin-2-yl)azetidin-3-yl (1-(4-(2,6-dioxopiperidin-3-yl)-3,5-difluorophenyl)azetidin-3-yl)carbamate], the Dmax at CDK2 was 50 to 80%. Also, the pKi on CRBN-DDB1 is ≥ 7.00.
At CDK2, `O=C1CCC(c2c(F)cc(N3CC(NC(=O)OC4CN(C(=O)N5CCC5)C4)C3)cc2F)C(=O)N1` (stereo not drawn) [Compound 30, 1-(azetidine-1-carbonyl)azetidin-3-yl (1-(4-(2,6-dioxopiperidin-3-yl)-3,5-difluorophenyl)azetidin-3-yl)carbamate] gave a Dmax of 50 to 80%. Moreover, the pKi at CRBN-DDB1 is ≥ 7.00.
On to `O=C1CCC(c2c(F)cc(N3CC(NC(=O)OC4CN(C(=O)N5CC6(CCC6)C5)C4)C3)cc2F)C(=O)N1` (stereo not drawn) [Compound 31, 1-(2-azaspiro[3.3]heptane-2-carbonyl)azetidin-3-yl (1-(4-(2,6-dioxopiperidin-3-yl)-3,5-difluorophenyl)azetidin-3-yl)carbamate], for which the Dmax on CDK2 was in the range of 50 to 80%. Besides, the negative logarithm of the Ki (pKi) on CRBN-DDB1 was ≥ 7.00.
The corresponding values for `O=C1CCC(c2c(F)cc(N3CC(NC(=O)OC4CN(C(=O)N5CCC56CCC6)C4)C3)cc2F)C(=O)N1` (stereo not drawn) [Compound 33, 1-(1-azaspiro[3.3]heptane-1-carbonyl)azetidin-3-yl (1-(4-(2,6-dioxopiperidin-3-yl)-3,5-difluorophenyl)azetidin-3-yl)carbamate] are 50 to 80% and ≥ 7.00.
As to `O=C1CCC(c2c(F)cc(N3CC(NC(=O)OCCc4ccccc4)C3)cc2F)C(=O)N1` (stereo not drawn) [Compound 34, phenethyl (1-(4-(2,6-dioxopiperidin-3-yl)-3,5-difluorophenyl)azetidin-3-yl)carbamate], the Dmax at CDK2 is 50 to 80%. The compound further had a pKi at CRBN-DDB1 of 6.00 to 7.00.
Regarding `O=C1CCC(c2c(F)cc(N3CC(NC(=O)OCc4ccc(OC(F)(F)F)cc4)C3)cc2F)C(=O)N1` (stereo not drawn) [Compound 35, 4-(trifluoromethoxy)benzyl (1-(4-(2,6-dioxopiperidin-3-yl)-3,5-difluorophenyl)azetidin-3-yl)carbamate], the Dmax at CDK2 was > 80%. At CRBN-DDB1, this compound had a pKi of 6.00 to 7.00.
`O=C1CCC(c2c(F)cc(N3CC(NC(=O)OC4CN(C(=O)N5CCCCC5)C4)C3)cc2F)C(=O)N1` (stereo not drawn) [Compound 36, 1-(piperidine-1-carbonyl)azetidin-3-yl (1-(4-(2,6-dioxopiperidin-3-yl)-3,5-difluorophenyl)azetidin-3-yl)carbamate]: at CDK2, the maximal degradation (Dmax) lay within 50 to 80%. For the same compound, at CRBN-DDB1, the pKi is ≥ 7.00.
The compound `O=C1CCC(c2c(F)cc(N3CC(NC(=O)OCc4ccccc4)C3)cc2F)C(=O)N1` (stereo not drawn) [Compound 37, benzyl (1-(4-(2,6-dioxopiperidin-3-yl)-3,5-difluorophenyl)azetidin-3-yl)carbamate] showed a Dmax at CDK2 of 50 to 80%. Besides, the pKi on CRBN-DDB1 was 6.00 to 7.00.
For the compound `O=C1CCC(c2c(F)cc([C@@H]3C[C@H]3NC(=O)OCC3CC4(CCC4)C3)cc2F)C(=O)N1` (stereo partly drawn) [Compound 38], the Dmax at CDK2 is > 80%. In addition, the negative logarithm of the Ki (pKi) at CRBN-DDB1 is ≥ 7.00.

Values taken from US20250263395A1, “COMPOUNDS THAT MEDIATE PROTEIN DEGRADATION AND METHODS OF USE THEREOF” (Monte Rosa Therapeutics AG, priority 2022, published 2025).
